Results from patent US20230104936A1, “TRPML MODULATORS” (Casma Therapeutics, Inc., priority 2019, published 2023).

Tested on: TFEB
Experiment: TFEB nuclear translocation assay, HeLa wt cells
Type: cell-based
Conditions: 2 hrs compound treatment, Table 1 does not say HeLa wt or TRPML1 KO
Summary of the method: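 HeLa wt cells were treated with compound for 2 hrs at 37° C, then fixed in 4% PFA and immunostained for TFEB with an Alexa 488 secondary and Hoechst nuclear counterstain. Automated epifluorescence imaging at ×20 gave the ratio of nuclear TFEB intensity to a perinuclear ring region, from which AC50 was derived.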

| Compound | AC50 (Homo sapiens, HeLa, 2 h) | AC50 |
| --- | --- | --- |
| COc1ccc(N2CCOCC2)c(NS(=O)(=O)Cc2ccc3c(c2)COCC3)c1 [Compound A-609, 1-(3,4-dihydro-1H-2-benzopyran-7-yl)-N-[5-methoxy-2-(morpholin-4-yl)phenyl]methanesulfonamide] | 8.01 to 9.99 µM |  |
| CC(C)(C)S(=O)(=O)c1ccc(S(=O)(=O)Nc2cc(Cl)ccc2N2CCOCC2)cc1 [Compound A-276, N-[5-chloro-2-(morpholin-4-yl)phenyl]-4-(2-methylpropane-2-sulfonyl)benzene-1-sulfonamide] | ≥ 10 µM |  |
| CN(C)S(=O)(=O)c1ccc(S(=O)(=O)Nc2ccccc2N2CCC(C)(c3ccc(F)cc3Cl)CC2)cc1 [Compound A-205, N4-{2-[4-(2-chloro-4-fluorophenyl)-4-methylpiperidin-1-yl]phenyl}-N1,N1-dimethylbenzene-1,4-disulfonamide] | ≤ 2 µM |  |
| COc1ccc(S(=O)(=O)Nc2ccccc2N2CCC(Oc3ccc(F)cc3F)CC2)cc1 [Compound A-196, N-{2-[4-(2,4-difluorophenoxy)piperidin-1-yl]phenyl}-4-methoxybenzene-1-sulfonamide] | ≤ 2 µM |  |
| O=S(=O)(Nc1ccccc1N1CCC(c2ccc(F)cc2F)CC1)c1ccc(C(F)F)nc1 [Compound A-136, 6-(difluoromethyl)-N-{2-[4-(2,4-difluorophenyl)piperidin-1-yl]phenyl}pyridine-3-sulfonamide] | ≤ 2 µM |  |
| CC1(C)CC2(CCN(c3ccccc3NS(=O)(=O)C3=Cc4ccccc4OC3)CC2)CO1 [Compound A-675, N-(2-{3,3-dimethyl-2-oxa-8-azaspiro[4.5]decan-8-yl}phenyl)-2H-chromene-3-sulfonamide] | ≤ 2 µM |  |
| O=S(=O)(Nc1cccc(Cl)c1N1CCC(c2c(F)cccc2F)CC1)c1ccc2c(c1)CCC2 [Compound A-298, N-{3-chloro-2-[4-(2,6-difluorophenyl)piperidin-1-yl]phenyl}-2,3-dihydro-1H-indene-5-sulfonamide] | ≤ 2 µM |  |
| CC1(C)CC2(CCN(c3ccccc3NS(=O)(=O)c3ccc(S(C)(=O)=O)c(F)c3)CC2)CO1 [Compound A-660, N-(2-{3,3-dimethyl-2-oxa-8-azaspiro[4.5]decan-8-yl}phenyl)-3-fluoro-4-methanesulfonylbenzene-1-sulfonamide] | 8.01 to 9.99 µM |  |
| C[C@@H]1CN(CC2(F)CCN(c3c(F)cccc3NS(=O)(=O)c3ccc(S(=O)(=O)N(C)C)cc3)CC2)C[C@H](C)O1 [Compound A-794, N4-[2-(4-{[(2R,6S)-2,6-dimethylmorpholin-4-yl]methyl}-4-fluoropiperidin-1-yl)-3-fluorophenyl]-N1,N1-dimethylbenzene-1,4-disulfonamide] | ≤ 2 µM |  |
| CN(C)S(=O)(=O)c1ccc(S(=O)(=O)N2CCC(N3CCC(c4ccc(Cl)cc4F)CC3)C2=O)cc1 (centres unmarked) [Compound A-71, 4-((3-(4-(4-chloro-2-fluorophenyl)piperidin-1-yl)-2-oxopyrrolidin-1-yl)sulfonyl)-N,N-dimethylbenzenesulfonamide] | ≥ 10 µM |  |
| C[C@H]1COC[C@H](C)N1CC1CCN(c2c(F)cccc2NS(=O)(=O)c2ccc(S(C)(=O)=O)cc2)CC1 (relative stereo) [Compound A-838, trans-N-(2-(4-((3,5-dimethylmorpholino)methyl)piperidin-1-yl)-3-fluorophenyl)-4-(methylsulfonyl)benzenesulfonamide] | ≤ 2 µM |  |
| CC(c1cccnc1)N1CCN(c2ccccc2NS(=O)(=O)c2ccc(S(=O)(=O)N(C)C)cc2)CC1 (centres unmarked) [Compound A-505, N1,N1-dimethyl-N4-(2-{4-[1-(pyridin-3-yl)ethyl]piperazin-1-yl}phenyl)benzene-1,4-disulfonamide] | 2.01 to 8 µM |  |
| CN1CC2(CCN(c3ccccc3NS(=O)(=O)c3ccc(S(=N)(=O)N(C)C)cc3)CC2)c2ccc(F)cc21 (centres unmarked) [Compound A-257, 4-[(2-{6-fluoro-1-methyl-1,2-dihydrospiro[indole-3,4′-piperidin]-1′-yl}phenyl)sulfamoyl]-N,N-dimethylbenzene-1-sulfonoimidamide] | ≤ 2 µM |  |
| CN1CCC(S(=O)(=O)Nc2ccccc2N2CCN(c3ccc(Cl)cc3F)CC2)CC1 [Compound A-16, N-{2-[4-(4-chloro-2-fluorophenyl)piperazin-1-yl]phenyl}-1-methylpiperidine-4-sulfonamide] | 2.01 to 8 µM |  |
| Cc1ccc(CS(=O)(=O)Nc2ccccc2N2CCC3(CC2)COC(C)(C)C3)c(F)c1 [Compound A-688, N-(2-{3,3-dimethyl-2-oxa-8-azaspiro[4.5]decan-8-yl}phenyl)-1-(2-fluoro-4-methylphenyl)methanesulfonamide] | 2.01 to 8 µM |  |
| C[C@@H]1CN(CC2CCN(c3c(F)cccc3NS(=O)(=O)c3ccc(S(=O)(=O)N(C)C)cc3)CC2)[C@@H](C)CO1 [Compound A-865, N4-[2-(4-{[(2R,5S)-2,5-dimethylmorpholin-4-yl]methyl}piperidin-1-yl)-3-fluorophenyl]-N1,N1-dimethylbenzene-1,4-disulfonamide] | ≤ 2 µM |  |

| Compound | AC50 (Homo sapiens, HeLa, 2 h) | AC50 |
| --- | --- | --- |
| CN(C)S(=O)(=O)c1ccc(S(=O)(=O)n2nc(C3CCN(c4c(F)cccc4F)CC3)c3c2CCNC3)cc1 [Compound A-533, 4-({3-[1-(2,6-difluorophenyl)piperidin-4-yl]-1H,4H,5H,6H,7H-pyrazolo[4,3-c]pyridin-1-yl}sulfonyl)-N,N-dimethylbenzene-1-sulfonamide] | 2.01 to 8 µM |  |
| CC(c1cccc(F)c1N1CCC(CN2C[C@@H](C)O[C@@H](C)C2)CC1)S(=O)(=O)c1ccc(S(=O)(=O)C(F)F)cc1 (stereo partly drawn) [Compound A-800, (2R,6S)-4-[(1-{2-[1-(4-difluoromethanesulfonylbenzenesulfonyl)ethyl]-6-fluorophenyl}piperidin-4-yl)methyl]-2,6-dimethylmorpholine] | ≤ 2 µM |  |
| C[C@@H]1CN(CC2CCN(c3c(F)cccc3NS(=O)(=O)c3ccc(S(C)(=N)=O)cc3)CC2)C[C@H](C)O1 (stereo partly drawn) [Compound A-841, N-(2-(4-(((2R,6S)-2,6-dimethylmorpholino)methyl)piperidin-1-yl)-3-fluorophenyl)-4-(S-methylsulfonimidoyl)benzenesulfonamide] | 2.01 to 8 µM |  |
| CN(C)S(=O)(=O)c1ccc(S(=O)(=O)n2nc(C3CCN(c4c(F)cccc4F)CC3)c3c2CCCN3)cc1 [Compound A-503, 4-((3-(1-(2,6-difluorophenyl)piperidin-4-yl)-4,5,6,7-tetrahydro-1H-pyrazolo[4,3-b]pyridin-1-yl)sulfonyl)-N,N-dimethylbenzenesulfonamide] | ≤ 2 µM |  |
| COCC1(C)CCN(c2ccccc2NS(=O)(=O)c2ccc3c(c2)COC3)CC1 [Compound A-645, N-{2-[4-(methoxymethyl)-4-methylpiperidin-1-yl]phenyl}-1,3-dihydro-2-benzofuran-5-sulfonamide] | 8.01 to 9.99 µM |  |
| C[C@@H]1CN(C(=O)C2CCN(c3ccccc3NS(=O)(=O)c3ccc(S(=O)(=O)N(C)C)cc3)CC2)C[C@H](C)O1 [Compound A-754, N4-(2-{4-[(2R,6S)-2,6-dimethylmorpholine-4-carbonyl]piperidin-1-yl}phenyl)-N1,N1-dimethylbenzene-1,4-disulfonamide] | 2.01 to 8 µM |  |
| CN(C)S(=N)(=O)c1ccc(S(=O)(=O)Nc2ccccc2N2CCC(c3ccc(Cl)cc3F)CC2)cc1 (centres unmarked) [Compound A-112, 4-({2-[4-(4-chloro-2-fluorophenyl)piperidin-1-yl]phenyl}sulfamoyl)-N,N-dimethylbenzene-1-sulfonoimidamide] | ≤ 2 µM |  |
| COCC1(C)CCN(c2ccccc2C(C)S(=O)(=O)c2ccc(S(=O)(=O)N(C)C)cc2)CC1 (single isomer, unassigned; enantiomer 2) [Compound A-699, 4-((1-(2-(4-(methoxymethyl)-4-methylpiperidin-1-yl)phenyl)ethyl)sulfonyl)-N,N-dimethylbenzenesulfonamide, enantiomer 2] |  | 2.01 to 8 µM |
| CC(C)CN1CCN(c2ccccc2C(C)S(=O)(=O)c2ccc(S(=O)(=O)N(C)C)cc2)CC1 (centres unmarked) [Compound A-604, N,N-dimethyl-4-(1-{2-[4-(2-methylpropyl)piperazin-1-yl]phenyl}ethanesulfonyl)benzene-1-sulfonamide] | ≤ 2 µM |  |
| COc1ccc(S(=O)(=O)Nc2ccccc2Oc2ccc(F)cc2F)cc1 [Compound A-186, N-(2-(2,4-difluorophenoxy)phenyl)-4-methoxybenzenesulfonamide] | ≥ 10 µM |  |
| CC(c1cccc(F)c1N1CCC(C)(C(F)F)CC1)S(=O)(=O)c1ccc(S(=O)(=O)N(C)C)cc1 (single isomer, unassigned) [Compound A-925, 4-((1-(2-(4-(difluoromethyl)-4-methylpiperidin-1-yl)-3-fluorophenyl)ethyl)sulfonyl)-N,N-dimethylbenzenesulfonamide] | ≤ 2 µM |  |
| COCC1(C)CCN(c2ccccc2NS(=O)(=O)c2ccc(C(C)(C)OC)cc2)CC1 [Compound A-655, N-{2-[4-(methoxymethyl)-4-methylpiperidin-1-yl]phenyl}-4-(2-methoxypropan-2-yl)benzene-1-sulfonamide] | 2.01 to 8 µM |  |
| CN(C)S(=O)(=O)c1ccc(S(=O)(=O)Nc2ccccc2N2CCN(c3ccc(Cl)cc3F)CC2)cc1 [Compound A-12, N4-{2-[4-(4-chloro-2-fluorophenyl)piperazin-1-yl]phenyl}-N1,N1-dimethylbenzene-1,4-disulfonamide] | ≤ 2 µM |  |
| O=C(c1ccc(S(=O)(=O)Nc2ccccc2N2CCC(c3ccc(Cl)cc3F)CC2)cc1)C(F)(F)F [Compound A-191, N-{2-[4-(4-chloro-2-fluorophenyl)piperidin-1-yl]phenyl}-4-(2,2,2-trifluoroacetyl)benzene-1-sulfonamide] | 2.01 to 8 µM |  |
| COCC1(C)CCN(c2ccccc2NS(=O)(=O)c2ccc(OC)cc2)CC1 [Compound A-538, 4-methoxy-N-{2-[4-(methoxymethyl)-4-methylpiperidin-1-yl]phenyl}benzene-1-sulfonamide] | ≤ 2 µM |  |
| CN(C)S(=O)(=O)c1ccc(S(=O)(=O)Nc2ccccc2N2CCC(O)(c3cc(Br)ncc3F)CC2)cc1 [Compound A-210, N4-{2-[4-(2-bromo-5-fluoropyridin-4-yl)-4-hydroxypiperidin-1-yl]phenyl}-N1,N1-dimethylbenzene-1,4-disulfonamide] | ≤ 2 µM |  |
